In patent US5776955A, “Use of unsubstituted and substituted n-(pyrrol-1-yl)pyridinamines as anticonvulsant agents” (Hoechst Marion Roussel, Inc., priority 1996, dated 1998):
pIC50: −log10 of the molar value.

Columns and labels:
sodium channels = conditions: 25 nM [^3 H]batrachotoxin, rat cortex vesicular preparation, 60 min, 25° C., pH 7.4; read-out: IC50, Inhibition of [^3 H]Batrachotoxin Binding
mice = assay: Supramaximal electroshock in mice (block of tonic seizure); assay type: in vivo, mouse (male CD-1); conditions: intraperitoneal, male CD-1 mice
Experimental: This procedure is used as to predict anticonvulsant activity of a test compound in vivo by its ability to block a full tonic seizure induced by a supramaximal electroshock stimulation as an indication of efficacy in preventing grand mal seizures. Male CD-1 mice (Charles River) weighing 18-30 grams were housed in accordance with the "NIH Guide to Care and Use of Laboratory Animals" (National Institutes of Health Care Publication 85-23, revised 1985) with a 12 hour light/dark cycle and free access to food and water. On the day of testing, animals are brought to the laboratory and randomly assigned to groups of six for the time course experiments and to test groups of ten for the dose-response experiments. The apparatus used for the test was the Wahlquist Electroshock Stimulator (Model H), which has a power source of 120 volts ac. A current of 15.5 mA lasting for 300 msec was delivered by placing the terminals of the stimulator across the eyes of the animal. This stimulus results in a tonic seizure, defined as a brief period of hindlimb flexion followed by a prolonged period of hindlimb extension. […] Protection is calculated as a normalized percent inhibition relative to a vehicle treated control group. A time course is performed to determine the peak time of drug action and then a dose response performed at the peak time to determine drug potency. Mice are dosed in a randomized fashion using a total of 4 dose groups and one vehicle control group. The ED50 value and 95% confidence limits are calculated by a computerized Litchfield and Wilcoxon analysis. Drugs are prepared dissolved in distilled water and, if insoluble a drop of surfactant is added. Drugs are routinely administered intraperitoneally for this test and given in a dosage volume of 10 ml/kg.

membrane sodium channels = conditions: Willow and Catterall, 1982; Olsen, 1986; cited from earlier work

CCCN(c1ccncc1F)n1cc(C)c2cc(O)ccc21 [1-[(3-Fluoro-4-pyridinyl)propylamino]-3-methyl-1H-indol-5-ol]
pIC50 (sodium channels): 4.72

CCCN(c1ccncc1)n1cc(C)c2ccccc21.O=C(O)/C=C\C(=O)O [3-Methyl-N-propyl-N-(4-pyridinyl)-1H-indol-1-amine maleate]
ED50 (mice; Mus musculus, ip, at peak time of drug action, read-out: ED50, inhibition of supramaximal electroshock): 14.4 mg/kg

NC(=O)N1c2ccccc2C=Cc2ccccc21 [Carbamazepine]
allosteric inhibition of [^3 H]batrachotoxin binding (membrane sodium channels): allosterically inhibit the binding of [^3 H]batrachotoxin to membrane sodium channels

CCCN(c1ccncc1F)n1cc(C)c2ccccc21.Cl [N-(3-Fluoro-4-pyridinyl)-N-propyl-3-methyl-1H-indol-1-amine hydrochloride]
percent inhibition (protection), supramaximal electroshock (mice; 30 mpk): 50%
percent inhibition (protection), supramaximal electroshock (mice; 60 mpk): 50%
